Data on 1 compound can be found in patent EP0051852A1, “Pyrimido(4,5-b)(1,4)thiazines and process for their preparation” (Stiftung Forschungsinstitut Borstel, priority 1980, dated 1982).

This experiment concerns E.coli(mutaflor). As to the kind of experiment: Bacterial growth kinetics, Coulter Counter (total cell count). Also noted: unit not given here. The class given is cell-based. The conditions noted are these: Coulter Counter (Gesamtkeimzahl); 75.0 µmol/l PTZ alone; 37°C, modified Sauton medium. From the text: 2,4-Diamino-5-(3',4',5'-trimehoxybenzvl)-pyrimidins (TMP) können auf ihre eigene und in Kombination potenzierte antimikrobielle Wirkung mit Hilfe der Bakterienvermehrungskinetik wie folgt geprüft werden: • Es werden zu Bakterienkulturen (Beispiel E.coli) in der logarithmischen Wachstumsphase die genannten Inhibitoren allein oder in den oben beschriebenen Kombinationen hinzugefügt. Die Veränderung der Zahl der Bakterien als Funktion der Zeit wird mit einem Coulter Counter (Gesamtkeimzahl) bzw. mit Hilfe der Kolonienzählung (Plattentest,Lebendkeimzahl) ermittelt. Die Vermehrungskurven werden bei Abwesenheit und bei Anwesenheit der Hemmstoffe und ihrer oben beschriebenen Kombinationen ermittelt. Die aus ihnen ermittelten Änderungen in den Vermehrungsgeschwindigkeiten sin^dein Maß für die antibakterielle Wirkung.
TMP wurde 1,5 Stunden später als die anderen Verbindungen der Kultur zugesetzt.

As to `Nc1nc(O)c2c(n1)SCC(CO)=N2` [PTZ, 2-Amino-4-hydroxy-6-hydroxymethyl-7H-pyrimido[4,5b][1,4]thiazin], the “beobachtete Vermehrungsgeschwindigkeitskonstanten kbeob.” value is recorded as 3.82.
